According to BindingDB's records for PubMed 38142509 (Sichuan University):
pIC50: −log10 of the molar value.

Target: Signal transducer and activator of transcription 3 (Homo sapiens, UniProt P40763)
Test: Inhibition of STAT3 (unknown origin)

Chain of Signal transducer and activator of transcription 3 (P40763 whole entry): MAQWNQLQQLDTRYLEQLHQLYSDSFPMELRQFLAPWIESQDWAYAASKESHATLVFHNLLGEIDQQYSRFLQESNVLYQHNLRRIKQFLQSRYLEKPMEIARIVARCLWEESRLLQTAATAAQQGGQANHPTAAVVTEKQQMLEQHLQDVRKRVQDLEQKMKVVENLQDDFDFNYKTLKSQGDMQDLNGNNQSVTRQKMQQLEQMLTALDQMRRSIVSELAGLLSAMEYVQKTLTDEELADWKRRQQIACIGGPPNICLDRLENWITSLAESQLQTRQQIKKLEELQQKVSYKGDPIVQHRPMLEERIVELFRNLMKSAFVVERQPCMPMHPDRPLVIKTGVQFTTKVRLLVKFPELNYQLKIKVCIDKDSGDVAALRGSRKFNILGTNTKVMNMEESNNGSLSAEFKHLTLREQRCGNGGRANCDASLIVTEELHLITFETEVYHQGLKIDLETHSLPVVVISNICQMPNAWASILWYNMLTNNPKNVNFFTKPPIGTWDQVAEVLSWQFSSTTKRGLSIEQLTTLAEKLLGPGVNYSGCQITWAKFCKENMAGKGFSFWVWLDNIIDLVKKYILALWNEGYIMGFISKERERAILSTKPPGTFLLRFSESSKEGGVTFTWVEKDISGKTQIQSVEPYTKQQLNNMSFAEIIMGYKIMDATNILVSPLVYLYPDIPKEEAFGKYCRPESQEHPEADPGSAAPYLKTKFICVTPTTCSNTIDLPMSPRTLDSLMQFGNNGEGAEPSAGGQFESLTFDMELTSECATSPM

Work on `COC(=O)[C@@]12OC[C@]34[C@H]([C@@H](O)[C@@H]1O)[C@@]1(C)CC(=O)C(O)=C(C)[C@@H]1C[C@H]3OC(=O)[C@H](OC(=O)C=C(C)C(C)(C)OC(C)=O)[C@@H]24` yielded a pIC50 of 8.62.
